Results as given in PMC10545747, “Development of cyclopeptide inhibitors of cGAS targeting protein-DNA interaction and phase separation” (Nature Communications, 2023).
Square brackets hold non-standard residues; d marks the D form. Peptide text beside a SMILES is read from it.

Each molecule was assayed against T1, recombinant human cGAS enzyme (hcGAS-ΔN, residues 147–522) (Homo sapiens, UniProt Q8N884) (assay: RNA-based fluorescent biosensor assay of cGAS activity (2',3'-cGAMP formation), in vitro screening). Settings: peptides screened at 20 μM; Supplementary Table 1 / Fig. S5b.
T1 construct: N-terminally truncated human cGAS (hcGAS-ΔN, residues 147–522); 6xHis-SUMO (N, cleaved yes); made in house; host or cells: Escherichia coli BL21 (DE3)
T1 sequence (Q8N884 147-522, stated change not applied): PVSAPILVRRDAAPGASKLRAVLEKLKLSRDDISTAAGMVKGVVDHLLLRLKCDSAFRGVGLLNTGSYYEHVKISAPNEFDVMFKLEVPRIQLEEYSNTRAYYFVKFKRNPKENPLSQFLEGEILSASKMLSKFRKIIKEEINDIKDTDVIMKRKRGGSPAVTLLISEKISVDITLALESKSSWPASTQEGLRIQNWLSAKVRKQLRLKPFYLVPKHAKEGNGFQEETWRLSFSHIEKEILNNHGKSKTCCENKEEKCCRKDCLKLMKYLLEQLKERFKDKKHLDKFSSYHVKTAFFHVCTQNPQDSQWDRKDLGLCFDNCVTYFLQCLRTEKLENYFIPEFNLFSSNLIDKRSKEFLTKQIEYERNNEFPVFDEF
Format: biochemical
Method in brief: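 In 40 mM Tris-HCl pH 7.5, 100 mM NaCl, 10 mM MgCl2, ISD (0.5 μM) started the reaction with hcGAS-ΔN (1.5 μM), ATP (1 mM) and GTP (1 mM). Incubation was 2 h at 37 °C, with compounds screened at 20 μM. 2',3'-cGAMP formed was quantified with an RNA-based fluorescent biosensor.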

Row | Molecule | Inhibition % [%]
1 | Cyclo (LwP(T(NMe))DLf(K(Dde))VR) [XQ61] | 16
2 | Cyclo (LwPTDLf(K(Dde))(V(NMe))R) [XQ62] | 0

Other lines, results leading:

Row | Inhibition % [%] | Molecule
3 | 0 | Cyclo (Lw(K(Dde))VDLf(K(Dde))VR) [XQ71]
4 | 0 | Cyclo (LwPTD(Nle)f(K(Dde))VR) [XQ73]
5 | 0 | Cyclo (LwPVD(Nle)f(K(Dde))IR) [XQ75]
6 | 0 | Cyclo (LwPVDLf(K(Dde))VR) [XQ74]

Same assay, conditions: peptides screened at 20 μM; Supplementary Table 1 / Fig. S5b; read-out: Inhibition %

Row | Molecule | inhibition at 20 µM [%]
7 | CC(C)C[C@@H]1NC(=O)[C@H](CC(=O)O)NC(=O)[C@H](C(C)C)NC(=O)[C@@H]2CCCN2C(=O)[C@@H](Cc2ccccc2)NC(=O)[C@H](CC(C)C)NC(=O)[C@H](CCCNC(=N)N)NC(=O)[C@H](C(C)C)NC(=O)[C@@H]2CCCN2C(=O)[C@@H](Cc2ccccc2)NC1=O [XQ60, Cyclo (LfPVDLfPVR)] (cyclo(DL[dF]PVRL[dF]PV)) | 0
8 | CC(C)C[C@@H]1NC(=O)[C@H](CCCNC(=N)N)NC(=O)[C@H](C(C)C)NC(=O)[C@@H]2CCCN2C(=O)[C@@H](Cc2ccccc2)NC(=O)[C@H](CC(C)C)NC(=O)[C@H]([C@@H](C)O)NC(=O)[C@@H]2CCCN2C(=O)[C@@H](Cc2ccccc2)NC(=O)[C@H](CC(=O)O)NC1=O [XQ63, Cyclo (LDfPTLfPVR)] (cyclo(D[dF]PTL[dF]PVRL)) | 0
9 | CC(C)C[C@@H]1NC(=O)[C@H](CC(=O)O)NC(=O)[C@H](CCCNC(=N)N)NC(=O)[C@H](C(C)C)NC(=O)[C@@H]2CCCN2C(=O)[C@@H](Cc2ccccc2)NC(=O)[C@H](CC(C)C)NC(=O)[C@H]([C@@H](C)O)NC(=O)[C@@H]2CCCN2C(=O)[C@@H](Cc2ccccc2)NC1=O [XQ64, Cyclo (DLfPTLfPVR)] (cyclo(DL[dF]PTL[dF]PVR)) | 0
10 | CC(C)C[C@@H]1NC(=O)[C@H](CCCNC(=N)N)NC(=O)[C@H](CC(=O)O)NC(=O)[C@H](C(C)C)NC(=O)[C@@H]2CCCN2C(=O)[C@@H](Cc2ccccc2)NC(=O)[C@H](CC(C)C)NC(=O)[C@H]([C@@H](C)O)NC(=O)[C@@H]2CCCN2C(=O)[C@@H](Cc2ccccc2)NC1=O [XQ65, Cyclo (LfPTLfPVDR)] (cyclo(DRL[dF]PTL[dF]PV)) | 0
11 | CC(C)C[C@@H]1NC(=O)[C@H](CCCNC(=N)N)NC(=O)[C@H](C(C)C)NC(=O)[C@H](CC(=O)O)NC(=O)[C@@H]2CCCN2C(=O)[C@@H](Cc2ccccc2)NC(=O)[C@H](CC(C)C)NC(=O)[C@H]([C@@H](C)O)NC(=O)[C@@H]2CCCN2C(=O)[C@@H](Cc2ccccc2)NC1=O [XQ66, Cyclo (LfPTLfPDVR)] (cyclo(DVRL[dF]PTL[dF]P)) | 0
12 | CC(C)C[C@@H]1NC(=O)[C@H](CCCNC(=N)N)NC(=O)[C@H](C(C)C)NC(=O)[C@@H]2CCCN2C(=O)[C@@H](Cc2ccccc2)NC(=O)[C@H](Cc2c[nH]cn2)NC(=O)[C@H](CC(=O)O)NC(=O)[C@H]([C@@H](C)O)NC(=O)[C@@H]2CCCN2C(=O)[C@@H](Cc2ccccc2)NC1=O [XQ67, Cyclo (LfPTDHfPVR)] (cyclo(DH[dF]PVRL[dF]PT)) | 0
13 | CC(C)C[C@@H]1NC(=O)[C@H](CCCNC(=N)N)NC(=O)[C@H](C(C)C)NC(=O)[C@@H]2CCCN2C(=O)[C@@H](Cc2ccccc2)NC(=O)[C@H](CC(C)C)NC(=O)[C@H](CC(=O)O)NC(=O)[C@H](CCC(N)=O)NC(=O)[C@@H]2CCCN2C(=O)[C@@H](Cc2ccccc2)NC1=O [XQ68, Cyclo (LfPQDLfPVR)] (cyclo(DL[dF]PVRL[dF]PQ)) | 0

Second part, the molecule after the results:

Row | inhibition at 20 µM [%] | Molecule
14 | 0 | CC(C)C[C@@H]1NC(=O)[C@H](CCCNC(=N)N)NC(=O)[C@H](C(C)C)NC(=O)[C@@H]2CCCN2C(=O)[C@@H](Cc2ccccc2)NC(=O)[C@H](CC(C)C)NC(=O)[C@H](CC(=O)O)NC(=O)[C@H](C(C)C)NC(=O)[C@H](CCCNC(=N)N)NC(=O)[C@@H](Cc2ccccc2)NC1=O [XQ76, Cyclo (LfRVDLfPVR)] (cyclo(DL[dF]PVRL[dF]RV))
15 | 10 | CC(C)C[C@@H]1NC(=O)[C@H](C)NC(=O)[C@H](C(C)C)NC(=O)[C@H](CCCNC(=N)N)NC(=O)[C@@H](Cc2ccccc2)NC(=O)[C@H](CC(C)C)NC(=O)[C@H](CC(=O)O)NC(=O)[C@H](C(C)C)NC(=O)[C@@H]2CCCN2C(=O)[C@@H](Cc2ccccc2)NC1=O [XQ77, Cyclo (LfPVDLfRVA)] (cyclo(AL[dF]PVDL[dF]RV))
16 | 0 | CC(C)C[C@@H]1NC(=O)[C@H](CC(=O)O)NC(=O)[C@H](C(C)C)NC(=O)[C@@H]2CCCN2C(=O)[C@@H](C)NC(=O)[C@H](C)NC(=O)[C@H](CCCNC(=N)N)NC(=O)[C@H](C(C)C)NC(=O)[C@@H]2CCCN2C(=O)[C@@H](Cc2ccccc2)NC1=O [XQ78, Cyclo (AaPVDLfPVR)] (cyclo(A[dA]PVDL[dF]PVR))
17 | 0 | CC(C)C[C@@H]1NC(=O)[C@H](CCCNC(=N)N)NC(=O)[C@H]([C@@H](C)O)NC(=O)[C@@H]2CCCN2C(=O)[C@@H](Cc2ccccc2)NC(=O)[C@H](C)NC(=O)[C@H](CC(=O)O)NC(=O)[C@H](C)NC(=O)[C@@H]2CCCN2C(=O)[C@@H](Cc2ccccc2)NC1=O [XQ79, Cyclo (LfPADAfPTR)] (cyclo(ADA[dF]PTRL[dF]P))
